In brackets after ≈: the same amount, converted by molar mass. Read-outs that look alike come from different tables or passages of the source.
Assays:
Format in all cases: cell-based
S. aureus = experiment: Broth dilution MIC determination (CLSI) against S. aureus strains; details: Staphylococcus aureus
In short: (§1)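 Azithromycin and solithromycin were run alongside as controls. Strain panels included multidrug-resistant isolates, with emphasis on macrolide-resistance mechanisms, and MICs followed CLSI broth dilution procedures.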

S. pneumoniae = experiment: Broth dilution MIC determination (CLSI) against S. pneumoniae strains; details: Streptococcus pneumoniae
In short: as §1

S. pyogenes = experiment: Broth dilution MIC determination (CLSI) against S. pyogenes strains; details: Streptococcus pyogenes
In short: as §1

E. faecalis = experiment: Broth dilution MIC determination (CLSI) against E. faecalis strains; details: Enterococcus faecalis
In short: as §1

E. coli = experiment: Broth dilution MIC determination (CLSI) against E. coli strains; details: Escherichia coli
In short: as §1

A. baumannii = experiment: Broth dilution MIC determination (CLSI) against A. baumannii strains; details: Acinetobacter baumannii
In short: as §1

K. pneumoniae = experiment: Broth dilution MIC determination (CLSI) against K. pneumoniae strains; details: Klebsiella pneumoniae
In short: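 CLSI broth-dilution MICs across a panel including multidrug- and macrolide-resistant strains, with azithromycin and solithromycin as control compounds.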

P. aeruginosa = experiment: Broth dilution MIC determination (CLSI) against P. aeruginosa strains; details: Pseudomonas aeruginosa
In short: as §1

H. influenzae = experiment: Broth dilution MIC determination (CLSI) against H. influenzae strains; details: Haemophilus influenzae
From the text: Minimum inhibitory concentrations (MICs) for macrolides described herein have been determined for unique strains of S. aureus, S. pneumoniae, S. pyogenes, E. faecalis, E. coli, A. baumannii, K. pneumoniae, P. aeruginosa, and H. influenzae, including several multidrug-resistant strains, with a special focus on macrolide resistant mechanisms. Azithromycin and solithromycin were included as control compounds. CLSI standard procedures for broth dilution MIC determination were used. Data for exemplary compounds described herein is shown in Tables M1-M7 and in Tables N1-N4.

[1] = ATCC29213, ATCC29213, read-out: MIC S. aureus ATCC29213
[2] = MRSA / USA100, MRSA: USA100, read-out: MIC S. aureus MRSA: USA100
[3] = MRSA / USA300, MRSA: USA300, read-out: MIC S. aureus MRSA: USA300
[4] = USA600, USA600, GISA, read-out: MIC S. aureus USA600, GISA
[5] = read-out: MIC S. aureus erm A genotype
[6] = ATCC49619, ATCC49619, read-out: MIC S. pneumoniae ATCC49619
[7] = erm B + mef A genotype, read-out: MIC S. pneumoniae erm B + mef A genotype
[8] = erm B + tet(M, O) genotype, read-out: MIC S. pneumoniae erm B + tet(M, O) genotype
[9] = read-out: MIC S. pneumoniae mef A genotype, mef A genotype
[10] = read-out: MIC S. pneumoniae mef A genotype, mef A genotype, first of two such columns (c3)
[11] = ATCC19615, ATCC19615, read-out: MIC S. pyogenes ATCC19615
[12] = macrolide-resistant, read-out: MIC S. pyogenes macrolide-resistant
[13] = ATCC29212, ATCC29212, read-out: MIC E. faecalis ATCC29212
[14] = Vancomycin-resistant, read-out: MIC E. faecalis Vancomycin-resistant
[15] = ATCC25922, ATCC25922, read-out: MIC E. coli ATCC25922
[16] = read-out: MIC E. coli CTX-M-14, CTX-M-14
[17] = read-out: MIC E. coli NDM-1, NDM-1
[18] = read-out: MIC E. coli TEM-1, TEM-1
[19] = ATCC19606, ATCC19606, read-out: MIC A. baumannii ATCC19606
[20] = IMP-4, read-out: MIC A. baumannii IMP-4
[21] = chromosomal class C, read-out: MIC A. baumannii chromosomal class C
[22] = imipenem-resistant, read-out: MIC A. baumannii imipenem-resistant
[23] = ATCC10031, ATCC10031, read-out: MIC K. pneumoniae ATCC10031
[24] = KPC-2, read-out: MIC K. pneumoniae KPC-2
[25] = SHV-12, read-out: MIC K. pneumoniae SHV-12
[26] = TEM-10, read-out: MIC K. pneumoniae TEM-10
[27] = ATCC27853, read-out: MIC P. aeruginosa ATCC27853
[28] = read-out: MIC P. aeruginosa HPA101-1477
[29] = ATCC49247, ATCC49247, read-out: MIC H. influenzae ATCC49247
[30] = erythro > 4, azithro 1, read-out: MIC H. influenzae erythro > 4, azithro 1

Structure (SMILES) | MIC (S. aureus; [1]) [µg/mL] | MIC (S. aureus; [4]) [µg/mL] | MIC (S. aureus; [5]) [µg/mL] | MIC (S. pneumoniae; [6]) [µg/mL] | MIC (S. pneumoniae; [7]) [µg/mL] | MIC (S. pneumoniae; [8]) [µg/mL] | MIC (S. pneumoniae; [9]) [µg/mL] | MIC (S. pneumoniae; [10]) [µg/mL] | MIC (S. pyogenes; [11]) [µg/mL] | MIC (S. pyogenes; [12]) [µg/mL] | MIC (E. faecalis; [13]) [µg/mL] | MIC (E. faecalis; [14]) [µg/mL] | MIC (E. coli; [15]) [µg/mL] | MIC (E. coli; [16]) [µg/mL] | MIC (E. coli; [17]) [µg/mL] | MIC (E. coli; [18]) [µg/mL] | MIC (A. baumannii; [19]) [µg/mL] | MIC (A. baumannii; [20]) [µg/mL] | MIC (A. baumannii; [21]) [µg/mL] | MIC (A. baumannii; [22]) [µg/mL] | also measured
CC[C@H]1OC(=O)[C@H](C)C(=O)[C@H](C)[C@@H](O[C@@H]2OC(CN(C)C)CC(N(C)C)C2O)[C@](C)(OC)C[C@@H](C)CN(C)[C@H](C)[C@H]2N(CCCCn3cc(-c4cccc(N)c4)nn3)C(=O)O[C@]12C (stereo partly drawn) [FSM-22003] | 8 (≈ 9.04 µM) | > 32 | > 32 | ≤ 0.0312 | 32 | ≤ 0.0312 | 0.5 (≈ 0.565 µM) | 0.0625 (≈ 0.0706 µM) | ≤ 0.0312 | 2 (≈ 2.26 µM) | 4 (≈ 4.52 µM) | > 32 | > 32 | > 32 | > 32 | 32 (≈ 36.2 µM) | > 32 | > 32 | > 32 | > 32 | MIC (S. aureus; [2]): > 32 µg/mL; MIC (S. aureus; [3]): > 32 µg/mL; MIC (K. pneumoniae; [23]): 8 µg/mL (≈ 9.04 µM); MIC (K. pneumoniae; [24]): > 32 µg/mL; MIC (K. pneumoniae; [25]): > 32 µg/mL; MIC (K. pneumoniae; [26]): > 32 µg/mL; MIC (P. aeruginosa; [27]): > 32 µg/mL; MIC (P. aeruginosa; [28]): > 32 µg/mL; MIC (H. influenzae; [29]): 8 µg/mL (≈ 9.04 µM); MIC (H. influenzae; [30]): 4 µg/mL (≈ 4.52 µM)
CC[C@H]1OC(=O)[C@H](C)C(=O)[C@H](C)[C@@H](O[C@@H]2OC(CNC(=O)c3cnccn3)CC(N(C)C)C2O)[C@](C)(OC)C[C@@H](C)CN[C@H](C)[C@H]2N(CCCCn3cc(-c4cccc(N)c4)nn3)C(=O)O[C@]12C (stereo partly drawn) [FSM-21881] | 8 (≈ 8.43 µM) | > 32 | > 32 | ≤ 0.0312 | 4 | ≤ 0.0312 | 2 (≈ 2.11 µM) | 0.5 (≈ 0.527 µM) | ≤ 0.0312 | 2 (≈ 2.11 µM) | 2 (≈ 2.11 µM) | > 32 | 16 (≈ 16.9 µM) | > 32 | > 32 | 32 (≈ 33.7 µM) | > 32 | > 32 | > 32 | > 32 | MIC (S. aureus; [2]): > 32 µg/mL; MIC (S. aureus; [3]): > 32 µg/mL; MIC (K. pneumoniae; [23]): 8 µg/mL (≈ 8.43 µM); MIC (K. pneumoniae; [24]): > 32 µg/mL; MIC (K. pneumoniae; [25]): > 32 µg/mL; MIC (K. pneumoniae; [26]): 32 µg/mL (≈ 33.7 µM); MIC (P. aeruginosa; [27]): > 32 µg/mL; MIC (P. aeruginosa; [28]): > 32 µg/mL; MIC (H. influenzae; [29]): 8 µg/mL (≈ 8.43 µM); MIC (H. influenzae; [30]): 2 µg/mL (≈ 2.11 µM)
CC[C@H]1OC(=O)[C@H](C)[C@@H](O[C@H]2C[C@@](C)(OC)[C@@H](O)[C@H](C)O2)[C@H](C)[C@@H](O[C@@H]2O[C@H](C)C[C@H](N(C)C)[C@H]2O)[C@](C)(O)C[C@@H](C)CN(C)[C@H](C)[C@@H](O)[C@]1(C)O [Azithromycin, azithromycin, reference compound] | 1 (≈ 1.34 µM) | > 32 | > 32 | < 0.0312 | > 32 | < 0.0312 | 4 (≈ 5.34 µM) | 0.25 (≈ 0.334 µM) | < 0.0312 | 2 (≈ 2.67 µM) | 4 (≈ 5.34 µM) | > 32 | 4 (≈ 5.34 µM) | > 32 | > 32 | 1 (≈ 1.34 µM) | 16 (≈ 21.4 µM) | > 32 | 32 (≈ 42.7 µM) | 8 (≈ 10.7 µM) | MIC (S. aureus; MRSA / USA100, read-out: MIC S. aureus MRSA: USA100): > 32 µg/mL; MIC (S. aureus; MRSA / USA300, read-out: MIC S. aureus MRSA: USA300): 32 µg/mL (≈ 42.7 µM); MIC (K. pneumoniae; [23]): 4 µg/mL (≈ 5.34 µM); MIC (K. pneumoniae; [24]): > 32 µg/mL; MIC (K. pneumoniae; [25]): 16 µg/mL (≈ 21.4 µM); MIC (K. pneumoniae; [26]): 8 µg/mL (≈ 10.7 µM); MIC (P. aeruginosa; [27]): > 32 µg/mL; MIC (P. aeruginosa; [28]): > 32 µg/mL; MIC (H. influenzae; [29]): 0.5 µg/mL (≈ 0.668 µM); MIC (H. influenzae; [30]): 0.125 µg/mL (≈ 0.167 µM)

— US11535643B2, “Macrolides with modified desosamine sugars and uses thereof” (President and Fellows of Harvard College, priority 2015, dated 2022)
